Legend:
[1] = Displacement of [3H]-diprenorphine from opioid receptor in rat brain membrane homogenates after 1 hr by liquid scintillation counting; format: cell membranes
[2] = target: Mu opioid receptor-like OR2 (Danio rerio, UniProt B8JHS2); assay: Displacement of [3H]-diprenorphine from zebrafish mu opioid receptor expressed in HEK293 cells after 1 hr by liquid scintillation counting; format: cell-based
Sequence of Mu opioid receptor-like OR2 (B8JHS2 whole entry): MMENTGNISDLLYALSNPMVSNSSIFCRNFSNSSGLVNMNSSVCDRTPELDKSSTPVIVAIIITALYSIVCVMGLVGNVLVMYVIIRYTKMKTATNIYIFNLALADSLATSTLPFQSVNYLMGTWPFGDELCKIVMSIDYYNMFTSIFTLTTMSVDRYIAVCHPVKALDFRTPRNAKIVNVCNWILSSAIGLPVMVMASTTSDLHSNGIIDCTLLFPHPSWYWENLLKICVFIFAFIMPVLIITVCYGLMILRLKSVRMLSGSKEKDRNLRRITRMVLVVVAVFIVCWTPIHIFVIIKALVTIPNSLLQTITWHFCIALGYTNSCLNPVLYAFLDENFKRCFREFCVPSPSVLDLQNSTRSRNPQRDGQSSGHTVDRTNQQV

SMILES | Ki [1] [µM] | Ki [2] [µM]
O=C(Oc1ccc(O)cc1)[C@@H]1[C@@H]2CCC[C@H]1NCC2 | 1.92 | 12.7
COC(=O)[C@@H]1[C@@H]2CCC[C@H]1NCC2 | 17.1 | 35.3
COC(=O)[C@@H]1[C@@H]2CCC[C@H]1N(C(=O)[C@@H](N)Cc1ccccc1)CC2 | 32.9 | 75.8
O=C(Oc1ccccc1)[C@@H]1[C@@H]2CCC[C@H]1NCC2 | 10.9 | 32
O=C(Oc1cccc(O)c1)[C@@H]1[C@@H]2CCC[C@H]1NCC2 | 4.04 | 9.52
O=C(O)[C@@H]1[C@@H]2CCC[C@H]1NCC2 | > 100 | –
COC(=O)[C@@H]1[C@@H]2CCC[C@H]1N(CCc1ccccc1)CC2 | 2.69 | 8.24
COC(=O)[C@@H]1[C@@H]2CCC[C@H]1N(Cc1ccccc1)CC2 | 14.8 | 37
COC(=O)[C@H](Cc1ccccc1)NC(=O)[C@@H]1[C@@H]2CCC[C@H]1NCC2 | 14.8 | 78
